Assay results as given in patent US10160755B2 (Plexxikon Inc., priority 2015, dated 2018).

These molecules were tested against c-Kit (Homo sapiens, UniProt P10721) (assay: c-Kit biochemical assay (per US 2007/0032519)).
Summary of the method: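 Biochemical kinase inhibition run per US 2007/0032519; values reported as binned IC50 ranges (0.0001–1 μM, 1–10 μM, 10–200 μM).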

c-Kit, sequence (P10721 26-976): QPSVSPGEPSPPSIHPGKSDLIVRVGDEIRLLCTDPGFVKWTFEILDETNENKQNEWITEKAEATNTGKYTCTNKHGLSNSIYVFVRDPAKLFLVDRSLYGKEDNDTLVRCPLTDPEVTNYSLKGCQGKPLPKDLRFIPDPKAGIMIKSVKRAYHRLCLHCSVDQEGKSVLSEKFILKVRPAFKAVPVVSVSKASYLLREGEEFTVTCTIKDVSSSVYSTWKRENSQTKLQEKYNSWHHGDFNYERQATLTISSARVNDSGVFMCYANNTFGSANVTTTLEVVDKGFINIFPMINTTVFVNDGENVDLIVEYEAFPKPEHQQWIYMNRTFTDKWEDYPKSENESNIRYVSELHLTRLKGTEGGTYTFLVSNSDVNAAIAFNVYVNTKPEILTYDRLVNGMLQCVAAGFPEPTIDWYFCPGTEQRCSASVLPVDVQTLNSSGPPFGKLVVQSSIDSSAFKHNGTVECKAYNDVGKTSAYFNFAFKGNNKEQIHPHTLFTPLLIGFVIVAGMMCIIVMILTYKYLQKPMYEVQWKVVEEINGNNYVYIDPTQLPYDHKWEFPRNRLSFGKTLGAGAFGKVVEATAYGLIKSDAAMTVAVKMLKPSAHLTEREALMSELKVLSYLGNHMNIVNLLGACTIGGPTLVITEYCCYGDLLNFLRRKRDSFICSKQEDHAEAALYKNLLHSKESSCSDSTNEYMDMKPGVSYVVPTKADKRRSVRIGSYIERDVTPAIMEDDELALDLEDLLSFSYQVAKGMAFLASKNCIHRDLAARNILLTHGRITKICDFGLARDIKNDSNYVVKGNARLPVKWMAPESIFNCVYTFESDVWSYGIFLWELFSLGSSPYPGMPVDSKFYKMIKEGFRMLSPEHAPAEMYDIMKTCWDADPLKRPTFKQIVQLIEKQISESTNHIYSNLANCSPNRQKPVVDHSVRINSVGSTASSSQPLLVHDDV

| IC50 [µM] | SMILES |
| --- | --- |
| 10 to 200 | CC(C)(C)n1cnc2ccc(-c3c[nH]c4ncc(-c5ccnc(C#N)c5)nc34)cc21 [P-301, 4-[7-(3-tert-butylbenzimidazol-5-yl)-5H-pyrrolo[2,3-b]pyrazin-2-yl]pyridine-2-carbonitrile] |
| 1 to 10 | CC(C)(C)n1cnc2ccc(-c3c[nH]c4ncc(-c5cnc(O)nc5)nc34)cc21 [P-363, 5-[7-(3-tert-butylbenzimidazol-5-yl)-5H-pyrrolo[2,3-b]pyrazin-2-yl]pyrimidin-2-ol] |
| 10 to 200 | CC(C)(C)n1cnc2ccc(-c3c[nH]c4ncc(-c5cnc(C#N)nc5)nc34)cc21 [P-352, 5-[7-(3-tert-butylbenzimidazol-5-yl)-5H-pyrrolo[2,3-b]pyrazin-2-yl]pyrimidine-2-carbonitrile] |
| 10 to 200 | COc1ncc(-c2cnc3[nH]cc(-c4ccc5ncn(C(C)(C)C)c5c4)c3n2)cc1C#N [P-405, 5-[7-(3-tert-butylbenzimidazol-5-yl)-5H-pyrrolo[2,3-b]pyrazin-2-yl]-2-methoxy-pyridine-3-carbonitrile] |
| 1 to 10 | CC(C)(O)c1ncc(-c2cnc3[nH]cc(-c4ccc5ncn(C(C)(C)C)c5c4)c3n2)cn1 [P-380, 2-[5-[7-(3-tert-butylbenzimidazol-5-yl)-5H-pyrrolo[2,3-b]pyrazin-2-yl]pyrimidin-2-yl]propan-2-ol] |

Second part, the molecule before the results:

| SMILES | IC50 [µM] |
| --- | --- |
| COc1cnc2[nH]cc(-c3ccc4ncn(C5CCC5)c4c3)c2c1 [P-061, 1-cyclobutyl-6-(5-methoxy-1H-pyrrolo[2,3-b]pyridin-3-yl)benzimidazole] | 1 to 10 |
| COc1cnc2[nH]cc(-c3ccc4ncn(C(C)(C)C)c4c3)c2c1 [P-074, 1-tert-butyl-6-(5-methoxy-1H-pyrrolo[2,3-b]pyridin-3-yl)benzimidazole] | 1 to 10 |
| Cc1ccc(-c2cnc3[nH]cc(-c4ccc5ncn(C(C)(C)C)c5c4)c3n2)cn1 [P-388, 7-(3-tert-butylbenzimidazol-5-yl)-2-(6-methyl-3-pyridyl)-5H-pyrrolo[2,3-b]pyrazine] | 0.0001 to 1 |
| COc1cnc2[nH]cc(-c3ccc4ncn(-c5ccccc5)c4c3)c2c1 [P-068, 5-methoxy-3-(3-phenylbenzimidazol-5-yl)-1H-pyrrolo[2,3-b]pyridine] | 10 to 200 |
| CC(C)(C)n1cnc2ccc(-c3c[nH]c4ncc(-c5cnc(F)c(F)c5)nc34)cc21 [P-390, 7-(3-tert-butylbenzimidazol-5-yl)-2-(5,6-difluoro-3-pyridyl)-5H-pyrrolo[2,3-b]pyrazine] | 10 to 200 |
